The source of these data is US7105517B2 (priority 2001, dated 2006).

Several values for one entry are separate records, joined by “and”; a condition that tells them apart may be missing. Equal entries are not always repeated.

Compound `CN1CCN(c2nc(-c3ccccc3)c(-c3ccnc(Nc4ccccc4)n3)s2)CC1` yielded a melting point of 239 to 240 °C.
For `Nc1nc(-c2ccccc2)c(-c2ccnc(Nc3cccc(CO)c3)n2)s1`, the melting point lay in the range of 214 to 215 °C.
As to `Nc1nc(-c2ccccc2)c(-c2ccnc(Nc3cccc(F)c3)n2)s1`, the melting point is 243 to 245 °C.
`Nc1nc(-c2ccccc2)c(-c2ccnc(Nc3cccc(Cl)c3)n2)s1` had a melting point of 243 to 245 °C.
In the case of `COc1ccc(-c2cccc(Nc3nccc(-c4sc(N)nc4-c4ccccc4)n3)c2)cc1OC` it was 236 to 237 °C; in that of `Nc1nc(-c2ccccc2)c(-c2ccnc(Nc3ccccc3)n2)s1`, 244 to 245 °C and 247 to 250 °C.

A word on the melting point: it is the temperature of the solid-liquid transition.
